How the values were obtained:
BSA [1] = biological target: T1, BSA (Bos taurus, UniProt P02769); experiment: DSC thermal unfolding of BSA in water and aqueous solutions of ABS phase-forming components; assay type: physicochemical, bovine; conditions: for Tm / ΔG / ΔHcal / ΔHcal/ΔHvH / ΔHvH / ΔS: 1.0 mg/mL BSA
T1 construct: purchased Millipore Sigma-Aldrich
Method: Differential scanning calorimetry (DSC) measurements were performed with Nano DSC equipment, as detailed in Section 3, and used to determine the melting temperature (T m ) and enthalpy ( Δ H) of protein unfolding. DSC analyzes changes in the structure and stability of proteins as thermal transitions at the nanoscale. Using DSC to measure heat capacity as a function of the temperature of a well-studied protein such as BSA provides keen insights into folding and unfolding processes, as well as factors affecting stability. Due to the volume and concentration requirements of the DSC technique, and the constraints in available quantities of IFN- α 2b the DSC experiments on the ABS phase-forming components’ effect on the structural properties of proteins were attained only for BSA.
The T m of BSA, which corresponds to the thermal unfolding transition midpoint, was measured in the absence and presence of the ABS phase-forming components at increasing concentrations (see Figure 1 and Table 2).

BSA [2] = biological target: T1, BSA; experiment: CD thermal unfolding (Tm) of BSA; assay type: physicochemical, bovine; conditions: 1.0 mg/ml BSA, 200 mM component aqueous solution
From the text: The thermal stability assessed by far-UV CD is solely determined through the thermal decay of the alpha-helical structure.

[3] = parameters: method as in earlier work; conditions: aqueous solution at 25 °C, ref 3 (supplement; main text ref 71), cited from earlier work
IFN-α2b [4] = biological target: T2, IFN-α2b (Homo sapiens, UniProt P01563); experiment: CD thermal unfolding (Tm) of IFN-α2b; assay type: physicochemical; conditions: 0.125 mg/ml IFN-α2b, 200 mM component aqueous solution
T2 construct: single non-glycosylated polypeptide chain with a molecular weight of 19 kDa, comprising 165 amino acids; purchased Millipore Sigma-Aldrich SRP4595-100UG; host or cells: E. coli
T2 sequence (P01563 24-188): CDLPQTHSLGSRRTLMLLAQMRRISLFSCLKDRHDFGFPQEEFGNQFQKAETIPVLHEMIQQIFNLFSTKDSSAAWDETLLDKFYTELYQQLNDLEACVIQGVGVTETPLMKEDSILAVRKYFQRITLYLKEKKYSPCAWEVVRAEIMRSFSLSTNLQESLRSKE
Method: The same analyses attained for 208 nm and 192 nm are illustrated in Figures S5 and S6 in the Supplementary Materials. The corresponding T m values are estimated by fitting to a sigmoid with four parameters (one-way ANOVA, significance level of 0.05) and summarized in Table S2 in the Supplementary Materials. The CD T m of 0.125 mg/mL native IFN- α 2b is in good agreement with what was previously reported. […] The estimated T m values are summarized in Table S2 in the Supplementary Materials. The same analysis is attained for 208 nm and 192 nm, as depicted in Figures S5 and S6 in the Supplementary Materials. All the CD T m results are summarized in Table S2 in the Supplementary Materials. The thermal stability assessed by far-UV CD is solely determined through the thermal decay of the alpha-helical structure.
The same analysis was attained for 208 nm and 192 nm as illustrated in Figure S13 in the Supplementary Materials. The corresponding T m values are depicted in Table 5, and were estimated by fitting a sigmoid with four parameters (one-way ANOVA, with a significance level of 0.05).

IFN-α2b [5] = biological target: T2, IFN-α2b; experiment: Far-UV CD secondary structure of IFN-α2b (CONTIN-LL deconvolution); assay type: physicochemical; conditions: 0.125 mg/mL IFN-α2b, 200 mM component, 25 °C
From the text: Circular dichroism (CD) is widely used to study the secondary structures of proteins, peptides and nucleic acids, because it requires a low concentration sample, is a nondestructive method, allows studying a wide range of variables (temperature, pH, etc.), and provides information on the effect of added ligands on protein folding and interactions.
Circular dichroism (CD) spectra were collected in a 10 mm quartz cuvette and a Chirascan spectropolarimeter (Applied Photophysics, UK) at room temperature. All CD spectra were recorded in the far-UV range of 190 to 260 nm at scan rates of 50 nm/min, with 4 accumulations, and a response time of 3 s; CD spectra were collected. For each CD experiment, two distinct duplicates were acquired and combined. […] Spectral deconvolution was carried out with DichroWeb using the CONTIN-LL deconvolution algorithm with the SMP180 reference set.

[6] = ITC ([C2C1Im][C4F9SO3]) or conductometry ([N1112(OH)][C4F9SO3])

T1 sequence (P02769 25-607): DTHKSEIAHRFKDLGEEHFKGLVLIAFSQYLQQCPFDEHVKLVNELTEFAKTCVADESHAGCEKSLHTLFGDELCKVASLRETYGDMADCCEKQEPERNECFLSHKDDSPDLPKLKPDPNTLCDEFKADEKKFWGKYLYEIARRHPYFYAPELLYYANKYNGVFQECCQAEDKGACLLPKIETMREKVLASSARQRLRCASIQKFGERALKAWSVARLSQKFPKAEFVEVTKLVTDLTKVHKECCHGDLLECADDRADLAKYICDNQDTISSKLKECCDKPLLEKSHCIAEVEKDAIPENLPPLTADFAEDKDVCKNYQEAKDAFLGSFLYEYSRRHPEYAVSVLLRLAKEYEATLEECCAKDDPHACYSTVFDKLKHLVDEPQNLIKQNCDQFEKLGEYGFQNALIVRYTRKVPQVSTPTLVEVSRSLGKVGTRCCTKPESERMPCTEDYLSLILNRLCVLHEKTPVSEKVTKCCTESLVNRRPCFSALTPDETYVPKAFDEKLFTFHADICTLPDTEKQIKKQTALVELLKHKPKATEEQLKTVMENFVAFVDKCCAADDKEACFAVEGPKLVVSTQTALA

Work on `CCCCn1cc[n+](C)c1.O=S(=O)([O-])C(F)(F)F` [[C4C1Im][CF3SO3], 1-butyl-3-methylimidazolium trifluoromethanesulfonate] yielded a Tm (BSA [1]; 0.1 mM component) of 74.54 °C, a ΔG (BSA [1]; 0.1 mM component) of 72.90 kJ/mol and a ΔHcal (BSA [1]; 0.1 mM component) of 513.1 kJ/mol. The ΔHcal/ΔHvH (BSA [1]; 0.1 mM component) was 0.946, the ΔHvH (BSA [1]; 0.1 mM component) was 542.1 kJ/mol and the ΔS (BSA [1]; 0.1 mM component) was 1.476 KJ/(mol.K). It also gave a Tm (BSA [1]; 1 mM component) of 75.31 °C, a ΔG (BSA [1]; 1 mM component) of 61.40 kJ/mol and a ΔHcal (BSA [1]; 1 mM component) of 422.1 kJ/mol. The ΔHcal/ΔHvH (BSA [1]; 1 mM component) was 0.987, the ΔHvH (BSA [1]; 1 mM component) was 427.8 kJ/mol and the ΔS (BSA [1]; 1 mM component) was 1.210 KJ/(mol.K). It also gave a Tm (BSA [1]; 5 mM component) of 81.43 °C, a ΔG (BSA [1]; 5 mM component) of 114.4 kJ/mol and a ΔHcal (BSA [1]; 5 mM component) of 717.0 kJ/mol. The ΔHcal/ΔHvH (BSA [1]; 5 mM component) was 1.069, the ΔHvH (BSA [1]; 5 mM component) was 670.6 kJ/mol and the ΔS (BSA [1]; 5 mM component) was 2.021 KJ/(mol.K). It also gave a Tm (BSA [1]; 10 mM component) of 79.02 °C, a ΔG (BSA [1]; 10 mM component) of 79.80 kJ/mol and a ΔHcal (BSA [1]; 10 mM component) of 517.5 kJ/mol. For the same compound, the ΔHcal/ΔHvH (BSA [1]; 10 mM component) was 1.024, the ΔHvH (BSA [1]; 10 mM component) was 505.2 kJ/mol and the ΔS (BSA [1]; 10 mM component) was 1.468 KJ/(mol.K). For the same compound, the Tm (BSA [1]; 25 mM component) was 72.02 °C, the ΔG (BSA [1]; 25 mM component) was 46.60 kJ/mol and the ΔHcal (BSA [1]; 25 mM component) was 336.6 kJ/mol. For the same compound, the ΔHcal/ΔHvH (BSA [1]; 25 mM component) was 0.992, the ΔHvH (BSA [1]; 25 mM component) was 339.3 kJ/mol and the ΔS (BSA [1]; 25 mM component) was 0.973 KJ/(mol.K). For the same compound, the Tm (BSA [1]; 55 mM component) was 72.44 °C, the ΔG (BSA [1]; 55 mM component) was 51.90 kJ/mol and the ΔHcal (BSA [1]; 55 mM component) was 375.8 kJ/mol. For the same compound, the ΔHcal/ΔHvH (BSA [1]; 55 mM component) was 0.960, the ΔHvH (BSA [1]; 55 mM component) was 391.4 kJ/mol and the ΔS (BSA [1]; 55 mM component) was 1.086 KJ/(mol.K). It also gave a Tm (BSA [1]; 120 mM component) of 76.32 °C, a ΔG (BSA [1]; 120 mM component) of 70.70 kJ/mol and a ΔHcal (BSA [1]; 120 mM component) of 477.1 kJ/mol. The ΔHcal/ΔHvH (BSA [1]; 120 mM component) was 0.969, the ΔHvH (BSA [1]; 120 mM component) was 492.3 kJ/mol and the ΔS (BSA [1]; 120 mM component) was 1.363 KJ/(mol.K). For the same compound, the “effect on BSA Tm (DSC)” value (BSA [1]; tested concentration range vs water) was “maintained”, the “Tm, Ellipticity 192 nm” value (BSA [2]) was 75.050 °C and the “Tm, Ellipticity 208 nm” value (BSA [2]) was 77.089 °C. For the same compound, the “Tm, Ellipticity 222 nm” value (BSA [2]) was 74.833 °C.

In the case of `CCn1cc[n+](C)c1.O=S(=O)([O-])C(F)(F)C(F)(F)C(F)(F)C(F)(F)F` [1-ethyl-3-methylimidazolium perfluorobutane sulfonate], the “1st CAC” value [3, 6] is listed as 14.40 mM, the “2nd CAC” value [3, 6] is listed as 34.48 mM and the “3rd CAC” value [3, 6] is listed as 76.54 mM. For the same compound, the “4th CAC” value ([3]; ITC) was 106.09 mM, the “Tm, Ellipticity 192 nm” value (IFN-α2b [4]) was 53.633 °C and the Tm (BSA [1]; 0.1 mM component) was 75.55 °C. The ΔG (BSA [1]; 0.1 mM component) was 72.30 kJ/mol, the ΔHcal (BSA [1]; 0.1 mM component) was 503.0 kJ/mol and the ΔHcal/ΔHvH (BSA [1]; 0.1 mM component) was 1.028. For the same compound, the ΔHvH (BSA [1]; 0.1 mM component) was 489.4 kJ/mol, the ΔS (BSA [1]; 0.1 mM component) was 1.445 KJ/(mol.K) and the Tm (BSA [1]; 1 mM component) was 75.62 °C. It also gave a ΔG (BSA [1]; 1 mM component) of 85.40 kJ/mol, a ΔHcal (BSA [1]; 1 mM component) of 592.2 kJ/mol and a ΔHcal/ΔHvH (BSA [1]; 1 mM component) of 1.050. For the same compound, the ΔHvH (BSA [1]; 1 mM component) was 563.8 kJ/mol, the ΔS (BSA [1]; 1 mM component) was 1.700 KJ/(mol.K) and the Tm (BSA [1]; 5 mM component) was 80.59 °C. The ΔG (BSA [1]; 5 mM component) was 125.6 kJ/mol, the ΔHcal (BSA [1]; 5 mM component) was 797.9 kJ/mol and the ΔHcal/ΔHvH (BSA [1]; 5 mM component) was 0.967. For the same compound, the ΔHvH (BSA [1]; 5 mM component) was 825.0 kJ/mol, the ΔS (BSA [1]; 5 mM component) was 2.255 KJ/(mol.K) and the Tm (BSA [1]; 10 mM component) was 80.94 °C. It also gave a ΔG (BSA [1]; 10 mM component) of 121.7 kJ/mol, a ΔHcal (BSA [1]; 10 mM component) of 768.1 kJ/mol and a ΔHcal/ΔHvH (BSA [1]; 10 mM component) of 1.061. For the same compound, the ΔHvH (BSA [1]; 10 mM component) was 724.1 kJ/mol, the ΔS (BSA [1]; 10 mM component) was 2.168 KJ/(mol.K) and the Tm (BSA [1]; 25 mM component) was 82.57 °C. For the same compound, the ΔG (BSA [1]; 25 mM component) was 136.1 kJ/mol, the ΔHcal (BSA [1]; 25 mM component) was 837.9 kJ/mol and the ΔHcal/ΔHvH (BSA [1]; 25 mM component) was 0.972. The ΔHvH (BSA [1]; 25 mM component) was 861.6 kJ/mol, the ΔS (BSA [1]; 25 mM component) was 2.354 KJ/(mol.K) and the Tm (BSA [1]; 55 mM component) was 84.28 °C. For the same compound, the ΔG (BSA [1]; 55 mM component) was 166.9 kJ/mol, the ΔHcal (BSA [1]; 55 mM component) was 1001.0 kJ/mol and the ΔHcal/ΔHvH (BSA [1]; 55 mM component) was 1.105. The ΔHvH (BSA [1]; 55 mM component) was 905.7 kJ/mol, the ΔS (BSA [1]; 55 mM component) was 2.798 KJ/(mol.K) and the Tm (BSA [1]; 120 mM component) was 86.15 °C. It also gave a ΔG (BSA [1]; 120 mM component) of 142.2 kJ/mol, a ΔHcal (BSA [1]; 120 mM component) of 830.9 kJ/mol and a ΔHcal/ΔHvH (BSA [1]; 120 mM component) of 1.051. For the same compound, the ΔHvH (BSA [1]; 120 mM component) was 790.9 kJ/mol, the ΔS (BSA [1]; 120 mM component) was 2.310 KJ/(mol.K) and the “increase of BSA Tm (DSC)” value (BSA [1]; FIL at the highest concentration (120 mM) vs water) was “approximately 11 °C”. The “Distorted Alpha Helix” value (IFN-α2b [5]) was 0.153, the “Distorted Beta Sheet” value (IFN-α2b [5]) was 0.069 and the “Regular Alpha Helix” value (IFN-α2b [5]) was 0.292. The “Regular Beta Sheet” value (IFN-α2b [5]) was 0.05, the Turns (IFN-α2b [5]) was 0.204 and the Unordered (IFN-α2b [5]) was 0.232.

Reference: publication PMC10931833, “Simultaneous Purification of Human Interferon Alpha-2b and Serum Albumin Using Bioprivileged Fluorinated Ionic Liquid-Based Aqueous Biphasic Systems” (International Journal of Molecular Sciences, 2024)
